Results reported in patent US9895344B2, “Treating various disorders with 7,8-dihydroxyflavone and derivatives thereof” (EMORY UNIVERSITY, priority 2008, dated 2018).

Tests used:
immobility [1] = assay: Forced swim test after 21 days oral treatment; type: in vivo, C57BL/6J mice; details: 5 mg/kg, oral injection, FIG. 34
Experimental: Adult male mice (2-3 months old) were randomly submitted to a forced swim test without a pre-swim. Saline, 4′-DMA-7,8-DHF and 7,8-DHF (5 mg/kg) were orally injected for 21 days. The mice were allowed to adapt to the test room for 2 days. The mice were placed in a clear glass cylinder with a diameter of 16 cm, half-filled with clear water at 24° C.
To explore whether 4′-DMA-7,8-DHF and 7,8-DHF have any antidepressant effect, a forced swim test (6 minutes, immobility recorded in the last 4 minutes) was conducted after chronic treatment of male C57BL/6J mice (8 mice/group) for 21 days via oral injection.

Erk = assay: Western analysis of Erk phosphorylation in hippocampal neurons; type: cell-based
Experimental: To further examine whether 7,8-dihydroxyflavone can stimulate TrkB-mediated downstream signaling cascades, Western analysis was performed.
To probe the time course of 7,8-dihydroxyflavone triggered TrkB activation, hippocampal neurons were treated with 7,8-dihydroxyflavone at 500 nM and phosphorylation of Erk and Akt was determined over time by Western analysis. […] Stimulation of Erk and Akt by 7,8-dihydroxyflavone also occurred in a dose dependent manner.

TrkB [2] = molecular target: T1, TrkB (Rattus norvegicus, UniProt Q63604); assay: Immunofluorescent staining of hippocampal neurons with anti-phospho TrkB antibody; type: cell-based; set-up: endogenous in cells; host or cells: primary hippocampal neurons; details: 1 μM, 30 minutes, FIG. 8
Experimental: Primary hippocampal neurons were seeded on poly-L lysine coated coverslips in a 12-well plate. After 7 days in vitro, the neurons were treated with 100 ng/ml BDNF or variety of flavone compounds (1 μM) for 30 minutes, and then washed with PBS. Cells were fixed with 3% formaldehyde in PBS at room temperature for 10 minutes. The cells were then permeabilized and blocked by 0.4% Triton X-100 and 2% FBS in PBS at room temperature for 15 minutes, washed with PBS three times and treated with anti-MAP2 (1:200) and anti-phospho-TrkB antibodies (1:500). After staining with FITC- or Rhodamine-conjugated secondary antibody, the coverslips were mounted on slides. Fluorescent images were taken by OLYMPUS IX71 fluorescence microscope (Olympus; Center Valley, Pa.).
BDNF binding to TrkB induces its autophosphorylation and, subsequently, activation of downstream kinase pathways including MAPK and PI3/Akt. To explore whether 7,8-dihydroxyflavone triggers TrkB activation, immunofluorescent staining on hippocampal neurons with anti-phospho TrkB antibody was conducted.
Target sequence in this assay (Q63604 32-821): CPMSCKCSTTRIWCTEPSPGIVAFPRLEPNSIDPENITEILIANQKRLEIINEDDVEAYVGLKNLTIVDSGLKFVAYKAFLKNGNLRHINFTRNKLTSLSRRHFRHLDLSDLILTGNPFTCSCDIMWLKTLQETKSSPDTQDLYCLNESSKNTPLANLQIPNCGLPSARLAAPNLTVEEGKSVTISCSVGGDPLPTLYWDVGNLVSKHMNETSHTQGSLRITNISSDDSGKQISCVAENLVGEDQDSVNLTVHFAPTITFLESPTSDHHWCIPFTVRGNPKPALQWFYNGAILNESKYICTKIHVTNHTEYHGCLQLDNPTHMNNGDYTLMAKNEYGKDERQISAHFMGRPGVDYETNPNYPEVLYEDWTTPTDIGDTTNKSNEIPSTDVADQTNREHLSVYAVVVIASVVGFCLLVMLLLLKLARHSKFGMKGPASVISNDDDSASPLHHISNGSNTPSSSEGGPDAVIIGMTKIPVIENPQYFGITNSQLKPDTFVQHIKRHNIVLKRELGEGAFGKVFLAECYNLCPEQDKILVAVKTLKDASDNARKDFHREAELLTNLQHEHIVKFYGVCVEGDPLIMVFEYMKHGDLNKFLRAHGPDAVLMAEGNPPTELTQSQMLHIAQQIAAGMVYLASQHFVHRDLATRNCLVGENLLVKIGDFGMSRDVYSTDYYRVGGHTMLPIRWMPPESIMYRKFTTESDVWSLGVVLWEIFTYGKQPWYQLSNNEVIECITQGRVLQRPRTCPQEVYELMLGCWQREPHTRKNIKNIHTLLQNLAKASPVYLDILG

[3] = Toxicity after 3-week chronic treatment (organ pathology, complete blood count); type: in vivo, mice
Experimental: To explore whether 4′-dimethylamino-7,8-dihydroxyflavone and 7,8-dihydroxyflavone have any intolerable toxicity, the major organs from mice treated with both compounds at 5 mg/kg/day for 3 weeks were analyzed.

TrkB [4] = molecular target: T1, TrkB; assay: Tyrosine phosphorylation of Trk receptors in transfected HEK293 cells: TrkB; type: cell-based; set-up: expressed in transfected cells; host or cells: HEK293; details: FIG. 15
Source text: (§1) To determine if 7,8-dihydroxyflavone promoted tyrosine phosphorylation of the other Trk receptors, HEK293 cells were transfected with various Trk receptors, followed by treatment with 7,8-dihydroxyflavone.
Target sequence in this assay (Q63604 32-821): as above

[5] = tested on: KA-induced neuronal apoptosis; assay: Kainic acid time course assay, oral TrkB agonists (caspase-3 immunoblot of brain lysates); type: in vivo, C57BL/6J mice; details: 1 mg/kg orally, KA 20 mg/kg i.p., FIG. 30 right
Experimental: Male C57BL/6 mice age 60 days were orally injected with a single dose of 4′-DMA-7,8-DHF or 7,8-DHF (1 mg/kg each). KA (20 mg/kg) was i.p. injected. Animals were continually monitored for 2 hours for the onset of seizure activity. At 0, 4 and 8 hours following TrkB agonist treatment, the animals were sacrificed and the brain lysates were analyzed by immunoblotting with p-TrkB-Y817, active caspase-3 and total TrkB antibodies.
To investigate whether these compounds exert any neuroprotective effects in animals, a time course assay was conducted.

immobility [6] = assay: Forced swim test, 5 days intraperitoneal; type: in vivo, mice; details: intraperitoneally for 5 days; imipramine 20 mg/kg, amitryptyline 15 mg/kg, 7,8-dihydroxyflavone 5 mg/kg; FIG. 25
Experimental: Adult male mice (2-3 months old, n=8) were randomly submitted, without a pre-swim, to a forced swim test of 6 minutes with immobility recorded in the last 4 minutes. Mice were injected intraperitoneally for 5 days with saline, imipramine (20 mg/kg), amitryptyline (15 mg/kg), or 7,8-dihydroxyflavone (5 mg/kg). The mice were allowed to adapt to the test room for 2 days, and the mice were placed in a clear glass cylinder with a diameter of 16 cm, half-filled with clear water at 24° C. […] Data are presented as mean±SEM; *p<0.05 against vehicle, **P<0.01 against vehicle and ***P<0.0001 against vehicle, student t-test.

TrkA = molecular target: T2, TrkA (Homo sapiens, UniProt P04629); assay: Tyrosine phosphorylation of Trk receptors in transfected HEK293 cells: TrkA; type: cell-based; details: FIG. 15
T2 construct: expressed in transfected cells; host or cells: HEK293
T2 sequence (P04629 33-796, species assumed): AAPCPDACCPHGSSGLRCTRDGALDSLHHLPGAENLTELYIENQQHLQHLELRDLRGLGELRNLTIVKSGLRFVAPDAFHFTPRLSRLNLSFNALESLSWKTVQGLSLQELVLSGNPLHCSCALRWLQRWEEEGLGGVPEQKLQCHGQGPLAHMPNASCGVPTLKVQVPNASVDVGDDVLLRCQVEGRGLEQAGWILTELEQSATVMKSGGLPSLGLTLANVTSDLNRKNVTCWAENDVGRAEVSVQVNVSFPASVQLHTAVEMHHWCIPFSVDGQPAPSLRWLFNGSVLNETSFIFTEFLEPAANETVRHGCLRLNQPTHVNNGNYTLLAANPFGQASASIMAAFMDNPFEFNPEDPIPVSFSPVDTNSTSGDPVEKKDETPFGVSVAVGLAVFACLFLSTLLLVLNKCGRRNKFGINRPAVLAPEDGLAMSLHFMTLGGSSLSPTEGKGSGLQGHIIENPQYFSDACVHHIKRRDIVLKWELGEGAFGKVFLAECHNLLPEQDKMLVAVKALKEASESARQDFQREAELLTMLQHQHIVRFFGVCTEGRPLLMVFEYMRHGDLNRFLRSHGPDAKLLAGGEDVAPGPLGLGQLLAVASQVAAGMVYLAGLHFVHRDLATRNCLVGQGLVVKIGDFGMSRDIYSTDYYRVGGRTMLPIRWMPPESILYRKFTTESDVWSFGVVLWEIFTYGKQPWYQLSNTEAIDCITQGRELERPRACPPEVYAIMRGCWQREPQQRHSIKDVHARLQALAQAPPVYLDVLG
Source text: as §1

[7] = tested on: ECD and ICD of TrkA receptor; assay: In vitro binding assay: TrkA ECD and ICD
TrkB [8] = molecular target: T3, TrkB (Mus musculus, UniProt P15209); assay: TrkB activation in mouse brain after intraperitoneal injection; type: in vivo, mice; details: 5 mg/kg intraperitoneally
T3 construct: from tissue; host or cells: mouse brain
T3 sequence (P15209 32-821): as the sequence (Q63604 32-821) above, with M3T, T9S, T10A, I32V, K63R, G84S, T153M, I185L, T394S, N770S counted along it
Experimental: To assess whether 7,8-dihydroxyflavone can provoke TrkB activation in the brain, mice were intraperitoneally injected with a dose of 5 mg/kg and analyzed at various time points. […] Further, as shown in FIG. 12 (right panel), the protein and mRNA levels of the neurotrophic receptors were not altered after treatment with 7,8-dihydroxyflavone.

TrkB [9] = molecular target: T1, TrkB; assay: TrkB receptor dimerization in cotransfected HEK293 cells (GST pull-down); type: cell-based; set-up: expressed in transfected cells; host or cells: HEK293
Experimental: BDNF is known to bind the TrkB receptor and provoke its dimerization (Barbacid, J. Neurobiol., 25:1386-1403, 1994; Klein et al, Cell, 66:395-403, 1991). To explore whether 7,8-dihydroxyflavone triggers TrkB receptor dimerization, HEK293 cells were cotransfected with GST-TrkB and HA-TrkB or HA-TrkA. The cells were then treated with BDNF or small flavone compounds (0.5 μM) for 30 minutes. The cells were harvested, washed once in PBS, and lysed in 1 ml lysis buffer (50 mM Tris, ph 7.4, 150 mM NaCl, 1 mM EDTA, 0.5% Triton X-100, 1.5 mM Na3VO4, 50 mM NaF, 10 mM sodium pyrophosphate, 10 mM sodium β-glycerophosphate, 1 mM phenylmethylsulfonyl fluoride (PMSF), 5 mg/ml aprotinin, 1 mg/ml leupeptin, 1 mg/ml pepstatin A) and centrifuged for 10 minutes at 14,000×g at 4° C. The supernatant was transferred to a fresh tube and transfected TrkB receptor was separated from the supernatant with glutathione beads, and the coprecipitated proteins were resolved on SDS-PAGE.
Target sequence in this assay (Q63604 32-821): as the sequence (Q63604 32-821) above
Target sequence in this assay (Q63604 32-821): as above

For O=c1cc(-c2ccccc2)oc2c(O)c(O)ccc12 [7,8-dihydroxyflavone], the swimming immobility (immobility [1]) was “significantly decreased”, the “time at which Erk phosphorylation was observed” value (Erk; 500 nM) was 5 min and the “time by which Erk phosphorylation faded” value (Erk; 500 nM) was 180 min. For the same molecule, the “Erk activation (Western)” value (Erk; FIG. 9) was “activated”, the “concentration at which Erk phosphorylation was observed” value (Erk; treatment for 30 minutes) was 250 nM and the “TrkB tyrosine phosphorylation (immunofluorescence)” value (TrkB [2]) was “provoked TrkB tyrosine phosphorylation similar to BDNF”. For the same molecule, the “toxicity to the mice” value ([3]; 5 mg/kg/day dose for 3-week chronic treatment) was “neither compound was toxic”, the “complete blood count (CBC) versus control saline-treated mice” value ([3]; mouse, in vivo) was “no significant difference” and the “tyrosine phosphorylation of TrkB receptor” value (TrkB [4]) was “elicited tyrosine phosphorylation”. The “KA-induced caspase-3 activation at 4 h” value [5] was “reduced”, the “active caspase-3 at 8 h” value [5] was “slightly increased” and the swimming immobility (immobility [6]) was “reduced the immobility”. For the same molecule, the “tyrosine phosphorylation of TrkA receptor” value (TrkA) was “not”, the “binding to TrkA ECD or ICD” value [7] was “Neither the ECD nor ICD of TrkA receptor was capable of binding” and the “TrkB phosphorylation in the brain” value (TrkB [8]; 2 hours after injection, FIG. 12) was “selectively phosphorylated”. The “protein and mRNA levels of the neurotrophic receptors” value (TrkB [8]; FIG. 12 right) was “not altered”, the “TrkB phosphorylation in the hippocampus (immunofluorescent staining)” value (TrkB [8]; FIG. 13) was “substantial TrkB phosphorylation” and the “dimerization of TrkB with TrkA receptor” value (TrkB [9]; GST-TrkB and HA-TrkA cotransfected) was “failed to dimerize with TrkA receptor”. For the same molecule, the TrkB dimerization (TrkB [9]; GST-TrkB and HA-TrkB, 0.5 μM, 30 minutes, FIG. 14) was “provoked TrkB dimerization to a similar manner as BDNF”, the “survival of ischemic insult and treatment” value (infarct volume; 5 mg/kg intraperitoneally) was “All animals included in the study survived” and the infarct volumes (infarct volume; 5 mg/kg intraperitoneally 5 minutes prior to reperfusion, TTC 24 hours after MCAO, FIG. 20) was “reduced infarct volumes”.
